Laboratory results taken from patent US11656221B2, “Methods to identify modulators of actin-binding proteins” (Regents of the University of Minnesota, priority 2019, dated 2023).
Entries after “also recorded” stand apart in the source; their conditions may differ.

Assays:
[1] = target: T1, Lifeact-mCherry binding to F-actin (Oryctolagus cuniculus, UniProt P68135); experiment: F-actin and Lifeact-mCherry co-sedimentation assay; design: species or system New Zealand white rabbit (Oryctolagus cuniculus)
T1 construct: Actin was purified from acetone powder derived from the psoas muscle; made in house; host or cells: actin from rabbit psoas muscle; Lifeact-mCherry from E. coli, pE-SUMOpro
Experimental: (§1) Actin was purified from acetone powder derived from the psoas muscle of New Zealand white rabbit (Oryctolagus cuniculus). Filamentous (F)-actin was stored for up to 3 days on ice before use in binding assays. Within an hour of the binding assay, the F-actin was clarified at 100,000×g at 4° C. for 10 min prior to setting up binding assays. The L253P β-III-spectrin ABD was expressed in E. coli BL21(DE3) (Novagen). The ABD was purified and the His-SUMO tag proteolytically removed, as previously described, except size-exclusion chromatography was not performed due to the high purity of the ABD protein. Lifeact-mCherry protein was similarly prepared. A Bradford assay was performed to determine clarified F-actin and ABD protein concentrations.
(§2) F-actin and ABD binding assays were performed as previously described. In brief, binding assays used 1 μM ABD protein, 1 μM F-actin and 1-50 μM compound (as indicated) or DMSO control for a total reaction volume of 60 μL in F-buffer containing 10 mM Tris, pH 7.5, 150 mM NaCl, 0.5 mM ATP, 2 mM MgCl2, and 1 mM DTT. Following 30 min incubation at room temperature (21° C.). F-actin was pelleted using centrifugation at 100,000×g at 25° C. for 30 min. Unbound ABD in the supernatant was measured following SDS-PAGE and Coomassie blue staining in accord. In addition, control co-sedimentations assays that lacked actin were performed to test if compounds cause ABD aggregation. F-actin and Lifeact-mCherry binding assays were undertaken with 2 μM Lifeact-mCherry, 30 μM F-actin and 1-50 μM compound (as indicated) or DMSO control for a total reaction volume of 80 μL in F-buffer. For a no-actin binding control, an assay sample with no F-actin was also set up. Binding reactions were allowed to reach equilibrium at room temperature (21° C.) for 30 min and then F-actin was pelleted by centrifugation at 100,000×g at 25° C. for 30 min. The amount of unbound Lifeact-mCherry was sampled by loading 7 μL of spin supernatant on a low volume black bottom 384-well plate (Greiner). Amount of mCherry was determined by acquiring fluorescence spectrum peak intensity at ˜600 nm using a spectral unmixing plate reader (Fluorescence Innovations, Inc) equipped with a 532 nm laser (Laserglow Technologies, Ontario, Canada) for excitation, 532 nm longpass filter for emission, and PMT for emission detection. The fraction of Lifeact-mCherry bound to F-actin was determined by subtracting from one the fraction of supernatant fluorescence intensity relative to the no-actin control sample, using the following equation:
[formula] • Where Fcontrol/DMSO is the peak mCherry fluorescence of assay samples containing compound or DMSO control, and Fno-actin is the peak mCherry fluorescence of assay samples that contained no F-actin. 2.9 Trypan Blue Cell Viability Assays

HEK293-6E cells = experiment: Trypan blue cell viability assay; type: cell-based
Experimental: HEK293-6E cell viability was measured using trypan blue (0.03%) staining and a Countess Automated Cell counter (Invitrogen). Non-transfected HEK293-6E cells were spun at 100×g for 5 min at 21° C., and resuspended in 10 mL of PBS. The centrifugation and resuspension were repeated twice more. Final cell concentration was 1×10^6 cells/mL. Cells were incubated with 2% DMSO, or 3-50 μM compound (as indicated) for 3 hrs at room temperature (21° C.). After addition of 100 μL of 0.06% trypan blue solution in PBS, 10 μL was loaded on a slide and injected into the cell counter, and cell viability was measured.

[2] = target: T2, ternary complex consisting of GFP-ABD-L253P, Lifeact-mCherry, and actin (Homo sapiens, UniProt O15020, L253P); experiment: Primary live-cell time-resolved FRET assay (GFP-ABD-L253P plus Lifeact-mCherry); type: cell-based; conditions: for effect on FRET in primary screen (Hit, 4SD threshold): LOPAC compounds 10 μM, 120 min
T2 construct: L252P β-III-spectrin (human) ABD residues 1-284; expressed in transfected cells; host or cells: HEK293-6E, pTT5 vector, transient

mammalian cells = conditions: cited from earlier work
ABD-L253P = target: T3, ABD-L253P (Homo sapiens, UniProt O15020, L253P); experiment: Sedimentation of ABD L253P without actin (aggregation); conditions: 10 μM
T3 construct: His-SUMO (cleaved yes); made in house; host or cells: E. coli BL21(DE3), pE-SUMOpro
Experimental: as §2, with “equation: […]” for “equation:”
In addition to a reduction in cell viability, the primary and counter screen may be sensitive to compounds that promote ABD-L253P protein aggregation. […] Our ABD-L253P to actin co-sedimentation assay is unlikely to be sensitive to ABD aggregation, as it is set up to monitor maximal sedimentation of ABD-L253P with actin at ˜90% ABD-L253P co-sedimenting. To directly measure the impact of 10 μM Hit compounds on ABD aggregation, we repeated the ABD-actin co-sedimentation without actin present.

[3] = target: T4, ABD-L253P (L253P β-III-spectrin ABD) binding to F-actin (Homo sapiens, UniProt O15020, L253P); experiment: F-actin and ABD co-sedimentation assay; conditions: 50 μM, 1 μM ABD, 1 μM F-actin
T4 construct: His-SUMO (cleaved yes); made in house; host or cells: E. coli BL21(DE3), pE-SUMOpro; actin from rabbit psoas muscle
Experimental: as §1
as §2, with “F-actin and Lifeact-mCherry binding assays were undertaken with 2 μM Lifeact-mCherry, 30 μM F-actin and 1-50 μM compound (as indicated) or DMSO control for a total reaction volume of 80 μL in F-buffer. For a no-actin binding control, an assay sample with no F-actin was also set up. Binding reactions were allowed to reach equilibrium at room temperature (21° C.) for 30 min and then F-actin was pelleted by centrifugation at 100,000×g at 25° C. for 30 min. The amount of unbound Lifeact-mCherry was sampled by loading 7 μL of spin supernatant on a low volume black bottom 384-well plate (Greiner).” left out, “equation: […]” for “equation:”

[4] = target: T5, GFP-ABD-L253P and mCherry (non-specific FRET) in HEK293-6E cells (Homo sapiens, UniProt O15020, L253P); experiment: Counter FRET assay, non-specific FRET (GFP-ABD-L253P plus mCherry); type: cell-based; conditions: 0.1% Triton X-100, cell lysis
T5 construct: L252P β-III-spectrin (human) ABD residues 1-284; expressed in transfected cells; host or cells: HEK293-6E, pTT5 vector, transient
Experimental: At 2×10^6 cells/mL, HEK293-6E cells were transfected with GFP-ABD (2.4 μg), Lifeact-mCherry (2.4-16.8 μg), mCherry (1.2-16.8 μg), and/or pTT5 (0.8-17.6 μg) using the 293fectin protocol (Thermo Fisher Scientific) with 20 μg total DNA. The cells were harvested 24 hours later by centrifugation at 100×g for 5 min, and then washed twice with PBS. Cell viability and concentration were determined using trypan blue assay and a Countess cell counter (Invitrogen).
Using a Multidrop Combi liquid dispenser (Thermo Fisher Scientific), 10^6 cells/mL were dispersed into 1536-well and 384-well plates as 5 or 50 μL aliquots, respectively. For control and tool compound plates, 100 nL of DMSO or potential tool compound was loaded using the Mantis (Formulatrix). […] Two to three hours after sample loading, fluorescence lifetime measurements were performed using high-throughput fluorescence plate-readers provided by Photonic Pharma LLC (MN, USA), including one detecting fluorescence lifetime and another detecting fluorescence spectra, as described previously.
To develop a biosensor that monitors the binding of mutant L253P β-III-spectrin to actin filaments in live cells, a fluorescence resonance energy transfer (FRET) approach was tested. […] To measure the non-specific component to our FRET readout, we concurrently tested expression of mCherry in place of Lifeact-mCherry. […]

T3 sequence (O15020 1-284 L253P): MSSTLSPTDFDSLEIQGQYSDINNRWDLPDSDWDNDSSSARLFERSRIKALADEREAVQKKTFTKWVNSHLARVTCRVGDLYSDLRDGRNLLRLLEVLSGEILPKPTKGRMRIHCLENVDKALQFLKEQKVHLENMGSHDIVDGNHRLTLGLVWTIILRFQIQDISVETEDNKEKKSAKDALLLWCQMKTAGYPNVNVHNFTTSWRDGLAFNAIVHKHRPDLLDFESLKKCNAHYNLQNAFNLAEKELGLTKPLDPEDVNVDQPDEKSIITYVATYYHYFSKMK
T2 sequence (O15020 1-284 L253P, one chain of several): as the sequence (O15020 1-284 L253P) above
T4 sequence (O15020 1-284 L253P): as above
T5 sequence (O15020 1-284 L253P): as above

effect on FRET in primary screen (Hit, 4SD threshold) [2] | Molecule | effect on Lifeact-mCherry binding with actin ([1]; 10 μM) | ABD L253P aggregation (pelleting without actin) (ABD-L253P) | other results
decrease FRET | CCCCCCCCCCCCCCCC(=O)OC(CC(=O)[O-])C[N+](C)(C)C (racemic) [palmitoyl-DL-carnitine] | decreased actin-Lifeact co-sedimentation; also recorded: reduce Lifeact-mCherry binding with actin | – | effect on HEK293-6E cell viability (HEK293-6E cells; 10 μM, 3 hr incubation): dramatically reduced cell viability; also recorded: reduces HEK293-6E cell viability; reported effect on cell viability (mammalian cells): reported to reduce cell viability
decrease FRET | CC(C)(C)c1ccc(/C=C/C(=O)Nc2ccc3c(c2)OCCO3)cc1 [AMG 9810] | – | increases ABD pelleting; also recorded: promote aggregation | –
decrease FRET | CC(C)(Sc1ccc(CCN(CCCCC2CCCCC2)C(=O)NC2CCCCC2)cc1)C(=O)O [GW7647] | decreased actin-Lifeact co-sedimentation; also recorded: reduce Lifeact-mCherry binding with actin | increases ABD pelleting; also recorded: promote aggregation | effect on HEK293-6E cell viability (HEK293-6E cells; 10 μM, 3 hr incubation): dramatically reduced cell viability; also recorded: reduces HEK293-6E cell viability
decrease FRET | O=C(O)c1cc([N+](=O)[O-])ccc1NCCCc1ccccc1 [NPPB] | decreased actin-Lifeact co-sedimentation; also recorded: reduce Lifeact-mCherry binding with actin | promote aggregation | ABD L253P aggregation (pelleting without actin) (ABD-L253P; listed as NBBP): increases ABD pelleting
decrease FRET | CCCc1c(-c2ccc(O)cc2)nn(-c2ccc(O)cc2)c1-c1ccc(O)cc1 [PPT] | – | increases ABD pelleting; also recorded: promote aggregation | –
– | [H]/N=C(/NCCCCC)N/N=C/c1c[nH]c2ccc(OC)cc12 [tegaserod] | – | – | effect on Lifeact-mCherry binding with actin ([1]; 50 μM): did not alter and not; decrease in cell viability (HEK293-6E cells; 50 μM, 3 hrs): 92%; effect on HEK293-6E cell viability (HEK293-6E cells; 50 μM, 3 hrs): greatly diminished cell viability; also recorded: abolishes HEK293-6E cell viability; reduction of total FRET ([2]; 50 μM, HEK293-6E cells, relative to DMSO): 83%; effect on ABD-L253P binding to actin [3]: did not alter; also recorded: no significant effect
– | Triton X-100 | – | – | effect on non-specific FRET [4]: abolished; effect on total FRET ([2]; 0.1% Triton X-100, cell lysis): abolished

Molecule | effect on FRET in primary screen (Hit, 4SD threshold) [2] | effect on Lifeact-mCherry binding with actin ([1]; 10 μM) | ABD L253P aggregation (pelleting without actin) (ABD-L253P) | other results
CCCCCCCC/C=C\CCCCCCCC(=O)NCc1ccc(O)c(OC)c1 [olvanil] | decrease FRET | – | increases ABD pelleting; also recorded: promote aggregation | –
